Experimental data as given in ChEMBL document CHEMBL1201862, “PubChem BioAssay data set” (2004).
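Results reflect a 48-hour exposure of cells in 96-well plates to compound at five concentrations. GI50 marks 50% less growth.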 Calls of active or inactive are those of the source. No stated cut-off is given here; in the data, active = GI50 up to about 1.1 µM and inactive = higher.

Key:
Assay in all cases: inhibition of tumour cell growth, NCI panel, 48 h
ACHN = test system: ACHN
K562 = test system: K562
EKVX = test system: EKVX
SR = test system: SR
CCRF-CEM = test system: CCRF-CEM
A549 = test system: A549
SK-OV-3 = test system: SK-OV-3
HCT-15 = test system: HCT-15
SF-268 = test system: SF-268
IGROV-1 = test system: IGROV-1
MDA-N = test system: MDA-N
MDA-MB-231 = test system: MDA-MB-231
NCI-H522 = test system: NCI-H522
M14 = test system: M14
KM12 = test system: KM12
U-251 = test system: U-251
NCI-H460 = test system: NCI-H460
DU-145 = test system: DU-145
NCI/ADR-RES = test system: NCI/ADR-RES
TK-10 = test system: TK-10
HCT-116 = test system: HCT-116
RXF 393 = test system: RXF 393
OVCAR-3 = test system: OVCAR-3
NCI-H23 = test system: NCI-H23
SK-MEL-5 = test system: SK-MEL-5
OVCAR-4 = test system: OVCAR-4
SK-MEL-2 = test system: SK-MEL-2
UO-31 = test system: UO-31
CAKI-1 = test system: CAKI-1
UACC-62 = test system: UACC-62
MOLT-4 = test system: MOLT-4
MCF7 = test system: MCF7
HOP-62 = test system: HOP-62
SN12C = test system: SN12C
SNB-75 = test system: SNB-75
BT-549 = test system: BT-549
786-0 = test system: 786-0
UACC-257 = test system: UACC-257
SNB-19 = test system: SNB-19
MDA-MB-435 = test system: MDA-MB-435
T47D = test system: T47D
LOX IMVI = test system: LOX IMVI
HCC 2998 = test system: HCC 2998
PC-3 = test system: PC-3
COLO 205 = test system: COLO 205
SF-295 = test system: SF-295
OVCAR-5 = test system: OVCAR-5
SF-539 = test system: SF-539
RPMI-8226 = test system: RPMI-8226
Hs-578T = test system: Hs-578T
HL-60 = test system: HL-60
SK-MEL-28 = test system: SK-MEL-28
Malme-3M = test system: Malme-3M
OVCAR-8 = test system: OVCAR-8
A498 = test system: A498
HT-29 = test system: HT-29
SW-620 = test system: SW-620
NCI-H226 = test system: NCI-H226
HOP-92 = test system: HOP-92

Measured: GI50

O=C(OCC(Cl)(Cl)Cl)N1CC[C@@H](C2CCCCC2)C1
active: U-251 0.1 µM | MDA-MB-435 < 0.01 µM
18.7 µM: HCT-15
inactive: ACHN 22.8 µM | K562 21.5 µM | EKVX 23.1 µM | SR 32.2 µM | CCRF-CEM 21.5 µM | A549 27.3 µM | SK-OV-3 42.6 µM | SF-268 17.3 µM | IGROV-1 75.5 µM | MDA-N 31 µM | MDA-MB-231 43.3 µM | NCI-H522 21.7 µM | M14 34.8 µM | KM12 17 µM | NCI-H460 21 µM | DU-145 35.6 µM | NCI/ADR-RES 18 µM | TK-10 30.1 µM | HCT-116 29.6 µM | RXF 393 18.3 µM | OVCAR-3 18.1 µM | NCI-H23 20.2 µM | SK-MEL-5 18.1 µM | OVCAR-4 18.6 µM | SK-MEL-2 18.3 µM | UO-31 20.7 µM | CAKI-1 27 µM | UACC-62 27.7 µM | MOLT-4 33.8 µM | MCF7 22.1 µM | HOP-62 20.4 µM | SN12C 29.3 µM | SNB-75 21.7 µM | BT-549 38.2 µM | 786-0 20.6 µM | UACC-257 28.4 µM | SNB-19 19.7 µM | T47D 32.7 µM | LOX IMVI 40.6 µM | HCC 2998 18.6 µM | PC-3 21.2 µM | COLO 205 23.6 µM | SF-295 19 µM | OVCAR-5 23.7 µM

COc1cccc(C23CCCC(C2)N(C)CC3OC(=O)c2ccccc2)c1OC (stereo not drawn)
inactive: ACHN 32.7 µM | SF-539 52.5 µM | K562 18.8 µM | EKVX 24.5 µM | SR 16.2 µM | CCRF-CEM 12.5 µM | A549 41 µM | SK-OV-3 34 µM | SF-268 32 µM | IGROV-1 15.6 µM | RPMI-8226 18.6 µM | MDA-N 16 µM | NCI-H522 22.6 µM | Hs-578T 24.4 µM | HL-60 10.2 µM | M14 15.9 µM | KM12 22.9 µM | U-251 28.3 µM | NCI-H460 20.6 µM | DU-145 36 µM | NCI/ADR-RES 20.7 µM | HCT-116 20 µM | OVCAR-3 24.8 µM | NCI-H23 10.7 µM | SK-MEL-5 14 µM | OVCAR-4 24 µM | SK-MEL-2 31.8 µM | UO-31 > 100 µM | CAKI-1 42.4 µM | UACC-62 25.9 µM | MOLT-4 18.4 µM | MCF7 27.4 µM | HOP-62 31.3 µM | BT-549 14.5 µM | 786-0 32.7 µM | UACC-257 25.8 µM | SNB-19 35.6 µM | MDA-MB-435 18 µM | T47D 20.3 µM | LOX IMVI 20.1 µM | HCC 2998 22.9 µM | PC-3 23.8 µM | COLO 205 14.1 µM | SK-MEL-28 28 µM | Malme-3M 16.6 µM | OVCAR-8 16.4 µM | A498 34.7 µM | HT-29 13.2 µM | SF-295 19.4 µM | OVCAR-5 26.4 µM | SW-620 24.4 µM
22.5 µM: HCT-15

c1ccc(/N=C(/Nc2ccccc2)N2CCCC2)cc1
inactive: ACHN > 100 µM | K562 > 100 µM | EKVX > 100 µM | SR > 100 µM | CCRF-CEM > 100 µM | A549 > 100 µM | SK-OV-3 > 100 µM | SF-268 > 100 µM | IGROV-1 > 100 µM | RPMI-8226 > 100 µM | MDA-N > 100 µM | NCI-H226 > 100 µM | NCI-H522 > 100 µM | Hs-578T > 100 µM | HL-60 > 100 µM | M14 > 100 µM | KM12 > 100 µM | U-251 > 100 µM | NCI-H460 > 100 µM | DU-145 > 100 µM | NCI/ADR-RES > 100 µM | TK-10 > 100 µM | HCT-116 > 100 µM | OVCAR-3 > 100 µM | NCI-H23 > 100 µM | SK-MEL-5 > 100 µM | OVCAR-4 > 100 µM | SK-MEL-2 > 100 µM | UO-31 > 100 µM | CAKI-1 > 100 µM | UACC-62 > 100 µM | MOLT-4 > 100 µM | MCF7 > 100 µM | HOP-62 > 100 µM | SN12C > 100 µM | SNB-75 > 100 µM | BT-549 > 100 µM | 786-0 > 100 µM | UACC-257 > 100 µM | SNB-19 > 100 µM | MDA-MB-435 > 100 µM | T47D > 100 µM | LOX IMVI > 100 µM | PC-3 79.1 µM | COLO 205 > 100 µM | SK-MEL-28 > 100 µM | Malme-3M > 100 µM | OVCAR-8 > 100 µM | HT-29 > 100 µM | SF-295 > 100 µM | HOP-92 > 100 µM | OVCAR-5 > 100 µM | SW-620 > 100 µM
> 100 µM: HCT-15
